How the values were obtained:
Assay in all cases: area over the GR curve, 72 h; higher = more effect;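 note: Dye Drop or Deep Dye Drop imaging of viable cells in 384-well plates (Hoechst nuclei, LIVE/DEAD dye), nine half-log doses, GR normalized to DMSO controls and time-zero plates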
[1] = tested on: AU565
[2] = tested on: BT474
[3] = tested on: HCC1187
[4] = tested on: HCC1395
[5] = tested on: HCC1569
[6] = tested on: HCC202
[7] = tested on: HS578T
[8] = tested on: MCF7
[9] = tested on: MDAMB231
[10] = tested on: PDX1258
[11] = tested on: PDXHCI002
[12] = tested on: T47D

Structure (SMILES)	area over the GR curve [1]	area over the GR curve [2]	area over the GR curve [3]	area over the GR curve [4]	area over the GR curve [5]	area over the GR curve [6]	area over the GR curve [7]	area over the GR curve [8]	area over the GR curve [9]	area over the GR curve [10]	area over the GR curve [11]	area over the GR curve [12]
COc1ccc2c(c1)[C@]1(C[C@H]1c1ccc3c(/C=C/c4ccc(CN5C[C@@H](C)O[C@@H](C)C5)cc4)n[nH]c3c1)C(=O)N2	0.725 GR	0.475 GR	0.535 GR	0.709 GR	0.435 GR	0.299 GR	0.941 GR	0.906 GR	0.765 GR	0.676 GR	0.489 GR	0.79 GR
COc1cccc(OCCCN)c1-c1cc(Nc2cnc(C#N)cn2)n[nH]1	0.5 GR	0.186 GR	0.235 GR	0.832 GR	0.355 GR	0.332 GR	1.3 GR	0.794 GR	1.09 GR	0.868 GR	0.045 GR	0.18 GR
CC(=O)Nc1cccc(-n2c(=O)n(C3CC3)c(=O)c3c(Nc4ccc(I)cc4F)n(C)c(=O)c(C)c32)c1 (max 1 µM)	-0.0244 GR	-0.316 GR	0.198 GR	0.185 GR	0.135 GR	0.237 GR	0.491 GR	0.277 GR	0.722 GR	0.0351 GR	0.2 GR	0.213 GR
CCc1cnn2c(NCc3ccc[n+]([O-])c3)cc(N3CCCC[C@H]3CCO)nc12 (max 1 µM)	0.857 GR	0.728 GR	0.942 GR	0.644 GR	0.541 GR	0.406 GR	0.616 GR	0.644 GR	0.663 GR	0.685 GR	0.584 GR	0.47 GR
CC(=O)c1c(C)c2cnc(Nc3ccc(N4CCNCC4)cn3)nc2n(C2CCCC2)c1=O (max 3.162 µM)	0.296 GR	0.194 GR	0.268 GR	0.274 GR	0.0095 GR	0.135 GR	0.32 GR	0.346 GR	0.345 GR	-0.0777 GR	0.273 GR	0.45 GR
CCc1cncnc1N1CCN(Cc2nc3ccc(C(F)(F)F)cc3[nH]2)CC1 (max 10 µM)	0.0402 GR	-0.104 GR	0.014 GR	0.0037 GR	0.0337 GR	0.0342 GR	0.0252 GR	0.0548 GR	0.0105 GR	-0.0033 GR	-0.045 GR	0.122 GR
CCCCOc1c(C(=O)c2c(F)cc(C)cc2F)c[nH]c2nncc1-2 (max 10 µM)	0.514 GR	0.137 GR	0.203 GR	0.807 GR	0.657 GR	0.359 GR	0.651 GR	0.697 GR	0.334 GR	1.05 GR	0.108 GR	0.649 GR
CCN1CCN(Cc2ccc(Nc3ncc(F)c(-c4cc(F)c5nc(C)n(C(C)C)c5c4)n3)nc2)CC1 (max 10 µM)	0.657 GR	0.329 GR	0.33 GR	0.562 GR	0.132 GR	0.277 GR	0.634 GR	0.702 GR	0.675 GR	0.329 GR	0.764 GR	0.766 GR
CNc1nc(-c2ccc3c(N)n[nH]c3c2)cc(N2C[C@@H](C(=O)NC3CCCCC3)CC[C@H]2C)n1 (max 10 µM)	0.223 GR	0.332 GR	-0.283 GR	0.187 GR	0.114 GR	0.365 GR	0.157 GR	0.256 GR	0.149 GR	0.011 GR	-0.0573 GR	0.394 GR
CO[C@@H](C)Cn1c(=O)n(C)c2cnc3ccc(-c4cncc(C(C)(C)O)c4)cc3c21 (max 10 µM)	0.793 GR	1.15 GR	0.303 GR	0.618 GR	0.768 GR	0.726 GR	0.688 GR	0.834 GR	0.607 GR	0.557 GR	0.228 GR	0.894 GR
Cc1nn(C)c(COc2ccc(N3CCN(S(=O)(=O)N(C)C)CC3)cc2)c1-c1cccc2c(CCCOc3cccc4ccccc34)c(C(=O)O)n(CCN3CCOCC3)c12 (max 10 µM)	-0.0201 GR	-0.0275 GR	-0.0287 GR	-0.0037 GR	-0.0353 GR	-0.005 GR	-0.0079 GR	-0.0002 GR	0.0519 GR	-0.0034 GR	-0.05 GR	0.0143 GR
CN(C)CC[C@H](CSc1ccccc1)Nc1ccc(S(=O)(=O)NC(=O)c2ccc(N3CCN(Cc4ccccc4-c4ccc(Cl)cc4)CC3)cc2)cc1[N+](=O)[O-] [ABT-737] (max 10 µM)	0.0543 GR	-0.0268 GR	0.526 GR	-0.0157 GR	0.318 GR	-0.0052 GR	0.026 GR	0.0119 GR	0.162 GR	-0.0015 GR	0.0548 GR	-0.0166 GR
C=CCn1c(=O)c2cnc(Nc3ccc(N4CCN(C)CC4)cc3)nc2n1-c1cccc(C(C)(C)O)n1 [AZD1775] (max 10 µM)	0.496 GR	0.387 GR	0.822 GR	0.886 GR	0.825 GR	0.579 GR	0.759 GR	0.692 GR	0.606 GR	0.73 GR	0.483 GR	0.113 GR
CNC(=O)c1cccc(-c2ccc3c(N4CCOC[C@@H]4C)nc(N4CCOC[C@@H]4C)nc3n2)c1 [AZD2014] (max 10 µM)	0.757 GR	1.01 GR	0.296 GR	0.582 GR	0.625 GR	0.698 GR	0.504 GR	0.854 GR	0.405 GR	0.41 GR	0.0467 GR	0.959 GR
NC1(C(=O)N[C@@H](CCO)c2ccc(Cl)cc2)CCN(c2nc[nH]c3nccc2-3)CC1 [AZD5363] (max 10 µM)	0.205 GR	0.568 GR	-0.203 GR	0.5 GR	0.433 GR	0.236 GR	0.248 GR	0.212 GR	-0.0246 GR	0.153 GR	-0.085 GR	0.623 GR

Reference: the supplement of paper PMC9663587
